Data on 3 compounds can be found in US11389469B2, “Targeting NAD+ to treat chemotherapy and radiotherapy induced cognitive impairment, neuropathies and inactivity” (NewSouth Innovations Pty Ltd, priority 2015, dated 2022).

One data set relates to elderly mice. To be noted: reference [17]; cited from earlier work.
The subject of data set [1] is Male Sprague-Dawley rats. Put plainly: Voluntary wheel running after doxorubicin. The class given is in vivo, rat. As to the method: (§1) FIGS. 1A-1D. […] A) Voluntary wheel running, followed by B) the von Frey test for mechanical allodynia (pain) at day 3. At day 8, C) short term spatial memory was assessed using the novel location recognition test. At day 9, D) short term object memory was assessed using the novel object recognition test. n=8, *p<0.05, **p<0.01, ****p<0.0001. Dunn's multiple comparison test, Kruskal Wallis one-way ANOVA.
(§2) In this Example, the strategy is to raise NAD^+ levels during chemotherapy treatment by administering animals with a cell permeable NAD^+ precursor known as nicotinamide mononucleotide (NMN). […] As expected, a single dose of doxorubicin caused neurocognitive defects including reduced voluntary wheel running, increased pain, and reduced short term spatial memory (FIG. 1).

The test system of data set [2] is Male Sprague-Dawley rats. Put plainly: von Frey test for mechanical allodynia (pain) after doxorubicin. The format is in vivo, rat. The protocol: as §1, §2
In data set [3] the test system is Male Sprague-Dawley rats. Put plainly: Novel location recognition test (short term spatial memory) after doxorubicin. The format is in vivo, rat. As to the method: as §1, §2
A further data set relates to muscle mitochondria. Put plainly: Mitochondrial respiration in Clarke type electrode. The following applies: aged NMN treated mice, preliminary data FIG. 3C.

Regarding `NC(=O)c1ccc[n+]([C@@H]2O[C@H](CO)[C@@H](O)[C@H]2O)c1` [NR, Nicotinamide Riboside], the “metabolism and aspects of ageing” value in the data set on elderly mice was “improve metabolism and reverse aspects of ageing”.

In the case of `COc1cccc2c1C(=O)c1c(O)c3c(c(O)c1C2=O)C[C@@](O)(C(=O)CO)C[C@@H]3O[C@H]1C[C@H](N)[C@H](O)[C@H](C)O1` [doxorubicin, reference compound], the “voluntary wheel running, effect of doxorubicin” value in the data set on Male Sprague-Dawley rats [1] (single i.p. dose of doxorubicin (4 mg/kg), male SD rats) is “reduced”. Besides, the “pain (mechanical allodynia, von Frey test), effect of doxorubicin” value with Male Sprague-Dawley rats [2] (single i.p. dose of doxorubicin (4 mg/kg), day 3, male SD rats) is “increased”. Moreover, the “short term spatial memory (novel location recognition test), effect of doxorubicin” value with Male Sprague-Dawley rats [3] (single i.p. dose of doxorubicin (4 mg/kg), day 8, male SD rats) is reported as “reduced”.

Regarding Nicotinamide Mononucleotide [NMN], the “effect of NMN on doxorubicin-reduced voluntary wheel running” value in the data set with Male Sprague-Dawley rats [1] (NMN in drinking water (500 mg/L) 24 hr prior and subsequent, plus 200 mg/kg co-administered with doxorubicin 4 mg/kg i.p.) was “reduced the effects of doxorubicin”. Moreover, the “effect of NMN on doxorubicin-increased pain (mechanical allodynia, von Frey)” value in the data set on Male Sprague-Dawley rats [2] (NMN in drinking water (500 mg/L) plus 200 mg/kg co-administered with doxorubicin 4 mg/kg i.p., day 3) was “reduced the effects of doxorubicin”. Further, the “effect of NMN on doxorubicin-reduced short term spatial memory (novel location recognition)” value with Male Sprague-Dawley rats [3] (NMN in drinking water (500 mg/L) plus 200 mg/kg co-administered with doxorubicin 4 mg/kg i.p., day 8) is “reduced the effects of doxorubicin”. The “mitochondrial dysfunction (respiratory capacity of muscle mitochondria)” value in the data set on muscle mitochondria is “reverse”. The “metabolism and aspects of ageing” value with elderly mice is “improve metabolism and reverse aspects of ageing”.
